Assay results reported in the CheMixHub viscosity set.

Assay: xn = mol fraction of the nth substance listed

CC(=O)OCCC(C)C + CCCCN
303.15 K, 101 kPa
Settings	viscosity [mPa·s]
x2 = 0.2734	0.7086
x2 = 0.4416	0.6996
x2 = 0.5646	0.6833
x2 = 0.6446	0.6711
x2 = 0.7489	0.6443
x2 = 0.8075	0.6212
x2 = 0.8664	0.5934
x2 = 0.8969	0.5868

CCCOCC(C)OCC(C)O (stereo not drawn) + CCCO
298.15 K, 101 kPa
Settings	viscosity [mPa·s]
x1 = 0.0061	1.977
x1 = 0.0137	1.998
x1 = 0.028	2.036
x1 = 0.0763	2.163
x1 = 0.1234	2.28
x1 = 0.1783	2.416
x1 = 0.2361	2.556
x1 = 0.3132	2.74
x1 = 0.3684	2.862
x1 = 0.4279	2.985
x1 = 0.4905	3.102
x1 = 0.5267	3.164
x1 = 0.5714	3.239
x1 = 0.6634	3.388
x1 = 0.7271	3.495
x1 = 0.8017	3.617
x1 = 0.8701	3.728
x1 = 0.9055	3.78
x1 = 0.9497	3.837

CC(=O)OCCC(C)C + Cc1ccccc1C
viscosity [mPa·s], 101 kPa
Settings	298.15 K	308.15 K
x1 = 0.045	0.754	0.657
x1 = 0.1503	0.745	0.659
x1 = 0.2526	0.738	0.66
x1 = 0.3475	0.735	0.664
x1 = 0.4468	0.735	0.67
x1 = 0.4819	0.735	0.673
x1 = 0.5459	0.737	0.679
x1 = 0.649	0.741	0.69
x1 = 0.7465	0.749	0.702
x1 = 0.8524	0.76	0.719
x1 = 0.9401	0.772	0.735

CCCCCCCC/C=C\CCCCCCCC(=O)OCC + CCCCCCCCCCCCCCCC
viscosity [mPa·s], 100 kPa
Settings	x1 = 0.1	x1 = 0.2	x1 = 0.3	x1 = 0.4	x1 = 0.5	x1 = 0.6	x1 = 0.7	x1 = 0.8	x1 = 0.9
293.15 K	3.595	3.805	4.056	4.336	4.643	4.964	5.309	5.671	6.032
298.15 K	3.195	3.382	3.599	3.849	4.12	4.405	4.704	5.019	5.335
303.15 K	2.852	3.009	3.2	3.422	3.657	3.906	4.163	4.434	4.708
308.15 K	2.56	2.705	2.873	3.065	3.269	3.485	3.71	3.946	4.185
313.15 K	2.314	2.443	2.589	2.755	2.928	3.113	3.306	3.508	3.715
318.15 K	2.1	2.217	2.351	2.504	2.662	2.83	3.004	3.186	3.372
323.15 K	1.917	2.023	2.144	2.28	2.421	2.571	2.723	2.887	3.053

CC(=O)Nc1ccccc1 + CC(=O)O
viscosity [mPa·s], 101.3 kPa
Settings	x1 = 0.1	x1 = 0.204	x1 = 0.288
298.15 K	19	30.2	43.6
323.15 K	11.8	18.2	27.7
